The term IC50 denotes the midpoint of a concentration-inhibition curve. A high value points to lower potency.

For one experiment, the system named is BXSB-Yaa mice. Kind of experiment: BXSB-Yaa strain lupus disease model. Format: in vivo, mouse. Particulars: for proteinuria: UACR; for Grade 3/4 nephritis onset: kidney histopathology. The procedure: Figure Legend: Twelve week old BXSB-Yaa mice were randomized into groups with equivalent median anti-dsDNA titers and treated once-a-day orally with Vehicle (Veh; 0.5% methyl-cellulose) alone or 300 mg/kg ER-892887 for 14 weeks total. (A) All mice were sacrificed at 26 weeks of age and final anti-dsDNA, anti-Sm/nRNP, and anti-RiboP titers were evaluated by ELISA as compared to titers observed in 6 wk old pre-diseased mice. (B) Approximately one week prior to sacrifice (25 weeks of age, 13 weeks of treatment), mice were housed 1-2 per cage in metabolic cages for 18 hours to collect urine, and the Urinary Albumin Creatinine Ratio (UACR, proteinuria) was determined for each animal as an indirect measure of kidney function. (C) At the time of sacrifice, kidneys were collected from individual mice, fixed in 10% formalin for 24 hours, embedded in paraffin, and H&E stained sections were generated for histopathology assessment in a blinded fashion. (D) Summary of mortality observed in the SLE-8 study. Statistical significance was determined by Mann-Whitney test for (A).
Figure Legend: Nine week old male BXSB-Yaa mice were treated once-a-day orally with Vehicle (Veh; 0.5% methyl-cellulose) alone or 100 mg/kg or 300 mg/kg ER-885454 for 15 weeks total. All mice were sacrificed at 24 weeks of age and final anti-dsDNA (A) and anti-Sm/RNP (B) titers were evaluated by ELISA. (C) Approximately one week prior to sacrifice, mice were housed 1-2 per cage in metabolic cages for 18 hours to collect urine, and the Urinary Albumin Creatinine Ratio (UACR, proteinuria) was determined for each animal as an indirect measure of kidney function. (D) At the time of sacrifice, kidneys were collected from individual mice, fixed in 10% formalin for 24 hours, embedded in paraffin, and H&E stained sections were generated for histopathology assessment in a blinded fashion. Statistical significance was determined by Mann-Whitney test for (A), (B), and (C) above.
Figure Legend: Seventeen week old BXSB-Yaa mice were randomized into two groups with equivalent median anti-dsDNA titers and treated once-a-day orally with Vehicle (Veh; 0.5% methyl-cellulose) alone or 300 mg/kg ER-885454 for 13 weeks total. All mice were sacrificed at 30 weeks of age and final anti-dsDNA (A) and anti-Sm/RNP (B) titers were evaluated by ELISA as compared to titers observed in 7 wk old pre-diseased mice. (C) Approximately one week prior to sacrifice, mice were housed 1-2 per cage in metabolic cages for 18 hours to collect urine, and the Urinary Albumin Creatinine Ratio (UACR, proteinuria) was determined for each animal as an indirect measure of kidney function. (D) At the time of sacrifice, kidneys were collected from individual mice, fixed in 10% formalin for 24 hours, embedded in paraffin, and H&E stained sections were generated for histopathology assessment in a blinded fashion. Statistical significance was determined by Mann-Whitney test for (A), (B), and (C) above.
Male BXSB-Yaa and female NZBWF1/J mice were purchased from Jackson Labs (Bar Harbor, Me.), both of which manifest with spontaneous lupus disease. Female DBA/1 mice were purchased from Harlan Laboratories (Indianapolis, Ind.) and at the indicated ages given an intraperitoneal injection of 0.5 ml pristane (2,6,10,14-Tetramethylpentadecane; Sigma, St. Louis, Mo.) to chemically induce lupus disease or of 0.5 ml PBS to generate age-matched, non-diseased control mice. Mice were dosed daily by oral administration of compound or drug in 0.5% methylcellulose, for the time period indicated.
Anti-dsDNA, -Sm/nRNP, -RiboP, and Histone titers were evaluated by standard ELISA approach. Briefly, 96-well EIA/RIA ELISA plates (Corning) were coated with 100 ul of diluted antigen in PBS for 90 minutes at room temperature as follows (final concentrations indicated): 10 U/ml Sm/nRNP complex (Immunovision), 10 ug/ml calf thymus dsDNA (Sigma), 5 U/ml RiboP (Immunovision), and 5 ug/ml Histone (Immunovision). […]

The next experiment deals with Human TLR4 (Homo sapiens, UniProt O00206). Kind of experiment: HEK-293 NF-kappaB luciferase reporter assay, LPS stimulus. The arrangement: engineered to stably and individually express human TLR4, TLR7 or TLR9 full-length ORF cDNAs; expressed in transfected cells; host or cells: HEK-293 (ATCC) with ELAM-1 NF-kappaB luciferase reporter. As to conditions: ligand LPS, analyte NFkB-luciferase. Format: cell-based. An excerpt: In vitro pharmacology: HEK-293 cells (ATCC) were engineered to stably express a NF-kappaB transcription factor inducible E-selectin (ELAM-1) luciferase reporter derived from the plasmid pGL3 (Promega) containing base pairs −2241 bp to −254 bp from the promoter of the human E-selectin gene (Accession No. NM_000450). These cells were then subsequently engineered to stably and individually express human TLR4, TLR7 or TLR9 full-length ORF cDNAs. Human TLR4 cDNA (Accession No. NM_138554) was cloned into pcDNA 3.0 expression vector (Invitrogen). TLR4 transfected cells were also engineered to express human MD-2 co-receptor [MD-2 cDNA (Accession No. NM_015364) was cloned into the pEF-BOS vector] and were supplemented with 10 nM soluble CD14 (R&D Systems) in the media to optimize LPS responsiveness. Human TLR9 cDNA (Accession No. NM_017442) was cloned into the pBluescript II KS vector (Agilent). Human TLR7 cDNA (Accession No. NM_016562) was obtained from OriGene. HEK-293 cells stably expressing human TLR8 (Accession No. NM_138636) or mouse TLR7 (Accession No. NM_133211) were purchased from InvivoGen and were then stably transfected with pNiFty2(NF-kappaB)-luciferase reporter plasmid (InvivoGen). […]
Sequence of Human TLR4 (O00206 24-839): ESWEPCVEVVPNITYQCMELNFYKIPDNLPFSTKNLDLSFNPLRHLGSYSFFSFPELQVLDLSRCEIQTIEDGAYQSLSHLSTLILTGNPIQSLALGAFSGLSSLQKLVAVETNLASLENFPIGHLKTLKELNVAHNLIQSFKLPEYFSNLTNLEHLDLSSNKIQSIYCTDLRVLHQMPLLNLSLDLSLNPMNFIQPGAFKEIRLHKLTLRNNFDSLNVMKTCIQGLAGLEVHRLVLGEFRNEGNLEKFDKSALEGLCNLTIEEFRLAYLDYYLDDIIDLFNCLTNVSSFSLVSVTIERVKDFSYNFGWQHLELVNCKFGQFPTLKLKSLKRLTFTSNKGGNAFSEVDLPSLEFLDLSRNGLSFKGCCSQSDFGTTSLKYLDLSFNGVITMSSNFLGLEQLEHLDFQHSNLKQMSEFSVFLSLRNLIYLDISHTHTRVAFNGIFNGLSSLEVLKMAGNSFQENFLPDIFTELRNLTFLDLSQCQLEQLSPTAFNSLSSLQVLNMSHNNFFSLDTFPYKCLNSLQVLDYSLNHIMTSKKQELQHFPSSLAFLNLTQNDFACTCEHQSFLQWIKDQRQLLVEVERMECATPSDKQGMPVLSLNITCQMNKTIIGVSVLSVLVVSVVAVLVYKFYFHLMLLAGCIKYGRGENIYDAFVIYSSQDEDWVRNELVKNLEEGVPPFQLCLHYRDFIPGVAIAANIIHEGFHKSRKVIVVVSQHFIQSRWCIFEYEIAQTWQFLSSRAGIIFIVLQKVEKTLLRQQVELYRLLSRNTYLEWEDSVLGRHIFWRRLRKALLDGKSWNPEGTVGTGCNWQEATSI
Sequence of Human TLR4 (Q9Y6Y9 19-160 partner): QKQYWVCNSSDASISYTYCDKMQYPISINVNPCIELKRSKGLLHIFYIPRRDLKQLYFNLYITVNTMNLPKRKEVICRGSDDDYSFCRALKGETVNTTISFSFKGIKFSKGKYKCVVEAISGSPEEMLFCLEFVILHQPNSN

`COc1ccc([C@@H]2C[C@H](C(F)(F)F)n3nc(-c4ccncc4)cc3N2)cc1OC` [ER-885454]: in the experiment with BXSB-Yaa mice, the proteinuria result is reported as “significantly reduced proteinuria” and the “Grade 3/4 nephritis onset” value is on record as “complete prevention”. Further, in the experiment on BXSB-Yaa mice (once-a-day oral), the anti-Sm/nRNP titers entry is “significantly reduced” and the anti-dsDNA titers entry is reported as “significantly reduced”.

In the case of `COc1ccc([C@@H]2C[C@H](C(F)(F)F)n3nc(-c4ccc(C(=O)N5CCNCC5)cc4)cc3N2)cc1OC` [ER-892887, (4-((5S,7R)-5-(3,4-dimethoxyphenyl)-7-(trifluoromethyl)-4,5,6,7-tetrahydropyrazolo[1,5-a]pyrimidin-2-yl)phenyl)(piperazin-1-yl)methanone], in the experiment with BXSB-Yaa mice, the proteinuria entry is on record as “trend towards reduced proteinuria” and the “Grade 3/4 nephritis onset” value was “complete prevention”. In the experiment on BXSB-Yaa mice (once-a-day oral), the anti-dsDNA titers result was “significantly reduced”. Further, the IC50 against Human TLR4 is above 10 µM.

For the origin of these results see patent US9126999B2, “Tetrahydropyrazolopyrimidine compounds” (EISAI R&D MANAGEMENT CO., LTD., priority 2012, dated 2015).
